# Reference: article PMC10037499, “High-Throughput Screen Reveals the Structure–Activity Relationship of the Antimicrobial Lasso Peptide Ubonodin” (ACS Central Science, 2023)
# Where a SMILES comes first, the peptide text is derived from it.
# What was measured:
# [1] = system: E. coli MC1061; assay: Colony-forming units of E. coli MC1061 pUboABC after IPTG induction; assay type: cell-based; settings: wild-type uboA induced, no uboD, three biological replicates
# Experimental: E. coli MC1061 pUboABC and E. coli MC1061 pUboBC cultures were grown. Aliquots of the cultures were sampled prior to and after induction with 10 μM IPTG and 100 μM IPTG, and 10-fold serial dilutions were plated. Colonies were counted 16 h after incubation. […]
# fold serial dilutions were spotted onto LB plates supplemented with 100 μ g/m L ampicillin and 0.2% w/v glucose. Plates were incubated for 16 hours at 37 °C before imaging.
# Colony- Forming Units of E. coli MC1061 pUboABC and E. coli MC1061 pUboBC pUboABC and pUboBC were transformed into electrocompetent E. coli MC1061, plated onto LB plates supplemented with 100 μ g/ m L ampicillin and 0.2% w/v glucose, and incubated at 37 °C for 16 hours. Single colonies were inoculated into LB media supplemented with 100 μ g/ m L ampicillin and 0.2% w/v glucose and shaken at 37 °C for 16 hours. These cultures were then sub-cultured to an OD600 of 0.02 into 50 mL of LB media supplemented with 100 μg/mL ampicillin in a 250 mL flask. Ten-fold serial dilutions of the culture were plated onto LB plates supplemented with 100 μ g/ m L ampicillin and 0.2% w/v glucose. […] All plates were incubated at 37 °C for 16 hours, after which the number of colonies was counted. […]
# A small quantity of DNA was used to reduce the probability of two plasmids being transformed into the same cell. […]
# [2] = system: B. cenocepacia AU24362; set-up: method as in PMID 35802499; settings: spot-on-lawn assay; cited from earlier work
# Excerpt: We proceeded to test the antimicrobial activity of the selected variants against two clinical isolates of the Bcc, B. cenocepacia AU0756 and B. cenocepacia AU24362, in broth microdilution assays. […] We revisited these measurements using broth microdilution assays following the Clinical & Laboratory Standards Institute (CLSI) standard.
smiles,measurement,setting,value
"CC[C@H](C)[C@@H]1NC(=O)[C@H](CO)NC(=O)CNC(=O)[C@H](CC(=O)O)NC(=O)CNC(=O)CNC(=O)CC[C@@H](C(=O)N[C@@H](Cc2ccc(O)cc2)C(=O)N[C@@H](Cc2ccccc2)C(=O)N[C@@H](CC(N)=O)C(=O)N[C@@H](CCCNC(=N)N)C(=O)N2CCC[C@H]2C(=O)N[C@@H](CCSC)C(=O)N[C@@H](Cc2c[nH]cn2)C(=O)N[C@H](C(=O)N[C@@H](Cc2c[nH]cn2)C(=O)N[C@@H](CC(=O)O)C(=O)N[C@@H](Cc2c[nH]c3ccccc23)C(=O)N[C@@H](CCC(N)=O)C(=O)N[C@H](C(=O)N[C@@H](CCSC)C(=O)N[C@@H](CC(=O)O)C(=O)N[C@@H](CO)C(=O)NCC(=O)N[C@@H](Cc2ccc(O)cc2)C(=O)N[C@@H](Cc2ccc(O)cc2)C(=O)NCC(=O)O)[C@@H](C)CC)[C@@H](C)CC)NC(=O)[C@H](C)NC1=O [WT, ubonodin] (HELM PEPTIDE1{G.G.D.G.S.I.A.E.Y.F.N.R.P.M.H.I.H.D.W.Q.I.M.D.S.G.Y.Y.G}$PEPTIDE1,PEPTIDE1,1:R1-8:R3$$$V2.0; C-terminus assumed)",Reduction in viable cell concentration (CFU per mL) after IPTG induction,[1],3 log
same,MIC against strain AU24362,[2],20 µM
